Structures can show the parent of a compound that is named as a salt.
Tests used:
[1] = test system: P. falciparum strain K1 in RBC; assay: In vitro chemosensitivity assay, blood stage P. falciparum K1 (SYBR green I); format: cell-based; conditions: Plasmodium falciparum, K1; erythrocytic stage, 72 h; read-out: EC50 (μM) for P. falciparum strain K1 in RBC
Protocol: Maintenance in continuous culture was done as described previously by Trager and Jensen ([46]). Cultures were maintained in fresh A+ human erythrocytes (EFS [French Blood Bank]) at 2.5% hematocrit in complete medium (RPMI 1640 with 25 mM HEPES, 25 mM NaHCO3, 10% A+ human serum) at 37°C under a reduced-O2 atmosphere (gas mixture of 10% O2, 5% CO2, and 85% N2). Parasitemia was maintained daily between 1% and 3%. The P. falciparum drug susceptibility test was carried out by comparing quantities of DNA in treated and control cultures of parasites in human erythrocytes according to a SYBR green I fluorescence-based method ([50]) using a 96-well fluorescence plate reader. Compounds, previously dissolved in DMSO (final concentration, less than 0.5% vol/vol), were incubated in a total assay volume of 200 μl of synchronized culture suspension (2% hematocrit and 0.4% parasitemia) for 72 h in a humidified atmosphere (85% N2, 10% O2, and 5% CO2) at 37°C in 96-well flat-bottom plates. Duplicate assays were performed for each sample. After incubation, plates were frozen at −20°C for 24 h. Then, the frozen plates were thawed for 1 h at 37°C. Fifteen microliters of each sample was transferred to 96-well flat-bottom black plates (Greiner Bio-one) already containing 15 μl of the SYBR green I lysis buffer (2× SYBR green I, 20 mM Tris base, pH 7.5, 20 mM EDTA, 0.008% [wt/vol] saponin, 0.08% [wt/vol] Triton X-100). […] Plates were incubated for 15 min at 37°C and then read on a Tecan Infinite F-200 spectrophotometer with excitation and emission wavelengths at 485 and 535 nm, respectively. […] EC50K1 values represent the mean values calculated from three independent experiments.

[2] = Cytotoxicity on HepG2 cell line (MTT); format: cell-based; conditions: human, HepG2 cells
Protocol: The evaluation of the cytotoxicity of the tested molecules on the HepG2 cell line was performed according to the method of Mosman ([42]) with slight modifications. […] Triplicate assays were performed for each sample. Each well was then examined under a microscope to detect possible precipitate formation before the medium was aspirated from the wells. An amount of 100 μl of MTT solution (0.5 mg/ml in medium without FBS) was then added to each well. […] After this time, the MTT solution was removed and DMSO (100 μl) was added to dissolve the resulting blue formazan crystals. Plates were shaken vigorously (700 rpm) for 10 min. The absorbance was measured at 570 nm with 630 nm as the reference wavelength using a Tecan Infinite F-200 microplate reader. DMSO was used as a blank and doxorubicin as a positive control. Cell viability was calculated as the percentage compared to the control (cells incubated without compound). […] CC50 values represent the mean values calculated from three independent experiments.

[3] = test system: P. yoelii in HepG2-CD81 cells; assay: Hepatic stage of P. yoelii in HepG2-CD81 cells; format: cell-based; conditions: Plasmodium yoelii; hepatic schizonts
Protocol: Hepatocytes were seeded into collagen-coated black 96-well plates and maintained at 37°C in 5% CO2 in complete medium. […] The infected culture plates were centrifuged for 10 min at 900 × g, allowing fast parasite sedimentation, and further incubated with serial dilutions of M1. […] DMSO was used as a negative control. The number, size, and shape of the parasites were determined using a CellInsight high-content screening platform equipped with Studio HCS software (ThermoFisher Scientific). The parasite immunostaining was done using an […]70 antibody raised in mice and a secondary anti-mouse antibody coupled to Alexa Fluor 488 ([43]). […] Thirty-seven images, representing more than 95% of the total bottom surface area of a culture well in 96-well plates, were captured for analysis. The custom script used for counting and measuring parasites first required identification of the objects based on a fluorescence intensity threshold. The object identity was then further validated based on size and morphological (shape) criteria. The presence of DAPI-associated fluorescence in the selected objects allowed their final selection and the rejection of false positives. […] The parasitic size reduction was calculated on the average object area using the total surface area of each selected object (μm^2).

[4] = test system: P. falciparum sporozoites invading primary human hepatocytes; assay: Hepatocyte invasion by preincubated P. falciparum sporozoites; conditions: reference compound; all concentrations tested
Protocol: (§1) On the day of infection, 3 · 10^4 sporozoites of P. falciparum, P. yoelii, and P. cynomolgi were added to their respective host cell cultures (human, murine, and simian). The infected culture plates were centrifuged for 10 min at 900 × g, allowing fast parasite sedimentation, and further incubated with serial dilutions of M1. Culture medium containing the appropriate drug concentration was refreshed daily, and cells were fixed at 48 h postinfection (p.i.) for infections with P. yoelii, 6 days p.i. for P. falciparum, or 8 days p.i. for P. cynomolgi. For the in vitro sporozoite invasion experiments, P. falciparum sporozoites were preincubated with 1, 10, and 100 μM M1 for 1 h at room temperature before hepatocyte infections. Three hours later, after sporozoite penetration into hepatocytes, cultures were washed and then further incubated with or without the presence of the drug during 6 days. DMSO was used as a negative control.
(§2) The number, size, and shape of the parasites were determined using a CellInsight high-content screening platform equipped with Studio HCS software (ThermoFisher Scientific). […] Host cell and parasite nuclei were labeled with DAPI (4′,6-diamidino-2-phenylindole). […] The custom script used for counting and measuring parasites first required identification of the objects based on a fluorescence intensity threshold. The object identity was then further validated based on size and morphological (shape) criteria. The presence of DAPI-associated fluorescence in the selected objects allowed their final selection and the rejection of false positives. […] The parasitic size reduction was calculated on the average object area using the total surface area of each selected object (μm^2).

[5] = test system: P. cynomolgi liver-stage parasites in simian primary hepatocytes; assay: In vitro liver-stage development, P. cynomolgi in simian primary hepatocytes; format: cell-based, Plasmodium cynomolgi
Excerpt: (§3) Primary human hepatocytes were isolated from liver segments obtained from adult patients undergoing partial hepatectomy (Service de Chirurgie Digestive, Hépato-Bilio Pancréatique, Hôpital Pitié Salpêtrière, Paris, France). Primary simian hepatocytes were isolated from liver segments collected from healthy Macaca fascicularis monkeys from CEA, Fontenay aux Roses, France. All hepatocytes were obtained using collagenase perfusion as previously described ([40]). […] Primary murine hepatocytes were isolated from liver segments collected from BALB/c mice. Human and murine hepatocytes were used directly after their isolation. Cells were seeded in 96-well plates (Falcon; Becton Dickinson Labware Europe, France) coated with collagen I (BD Bioscience, USA) at a density of 80,000 cells per well. […] For human hepatocytes, the complete medium was supplemented with 2% dimethyl sulfoxide (DMSO; Sigma-Aldrich, USA) before infection to preserve their differentiation.
as §1, §2

[6] = test system: P. yoelii (GFP-luc strain); assay: In vivo liver-stage assay in mice infected with P. yoelii sporozoites; parameters: species or system BALB/c mice; conditions: 50 mg/kg; blood smears days 3 and 6
Protocol: Five mice per treatment group were used. Experimental groups were treated with 50 and 100 mg/kg of M1 intraperitoneally (i.p.). Untreated infected mice and noninfected mice (infection controls), as well as primaquine-treated (50 mg/kg) mice (control drug), were also included. The drugs were administered on days −1, 0, and +1, and mice were challenged on day zero by retroorbital injection of P. yoelii (GFP-luc strain) sporozoites (10,000 per mouse). In vivo bioluminescence imaging was performed 44 h postinfection on day 2, to assess liver-stage development. When parasites were detected in the liver, treatment was continued until day 5 and in vivo imaging was performed on days 3 and 6, to evaluate a prepatent period for the blood-stage parasites in mice after the sporozoite inoculation. In vivo imaging and blood smears were performed to monitor blood-stage development using methods described previously ([45]). This experiment was performed twice.
IVIS Spectrum (Caliper Life Science, Hanover, MD) was used to capture bioluminescence signals. Prior to analysis, the mice were injected i.p. with D-luciferin (100 mg/kg), anesthetized with isoflurane, and imaged 10 min postinjection. Images were analyzed using the Living Image 3.0 software (Caliper Life Sciences, Hanover, MD).
In order to study the in vivo efficacy of M1 without any hepatic CYP metabolism, we conducted an experiment using 1-aminobenzotriazole (ABT), a nonselective inhibitor of cytochrome P450 enzymes ([34], [35]). ABT was administered to mice i.p. 1 h before each treatment with 50 mg/kg gamhepathiopine for 3 days starting from the day before sporozoite inoculation.

[7] = test system: P. falciparum liver-stage parasites in human primary hepatocytes; assay: In vitro liver-stage development, P. falciparum in human primary hepatocytes; format: cell-based, Plasmodium falciparum
Excerpt: as §3, §1, §2

[8] = test system: P. yoelii liver-stage parasites in murine primary hepatocytes; assay: In vitro liver-stage development, P. yoelii in murine primary hepatocytes; format: cell-based, Plasmodium yoelii
Excerpt: P. yoelii 230-GFP-Luc sporozoites are mutant parasites expressing a green fluorescent protein (GFP)-luciferase cassette generated by the gene out marker out (GOMO) strategy ([39]).
as §3, §1, §2

Q: For CC(C)(C)Nc1nc2cc(-c3ccc(C=O)cc3)sc2c(=O)[nH]1 [Metabolite 8, 4-(2-(tert-Butylamino)-4-oxo-3,4-dihydrothieno[3,2-d]pyrimidin-6-yl)benzaldehyde], which melting point is on record?
A: 296 °C

Q: What about the EC50 [1] of the same compound?
A: 3.1 µM

Q: And the CC50 at 72 h [2]?
A: 25.3 µM

Q: Which EC50 [3] does the source give for O=C1C(O)=C([C@H]2CC[C@H](c3ccc(Cl)cc3)CC2)C(=O)c2ccccc21 [Atovaquone, reference compound] here?
A: 0.003 µM

Q: What about the EC50 [1] of the same compound?
A: 0.001 µM

Q: And the CC50 at 72 h [2]?
A: > 15.6 µM

Q: For CC(C)(C)Nc1nc2cc(-c3ccc(C(=O)O)cc3)sc2c(=O)[nH]1 (as salt: hydrochloride) [Metabolite 10, 4-(2-(tert-Butylamino)-4-oxo-3,4-dihydrothieno[3,2-d]pyrimidin-6-yl)benzoic acid], which melting point is on record?
A: > 300 °C

Q: With COc1cc(NC(C)CCCN)c2ncccc2c1 (stereo not shown) [Primaquine, reference compound] as the compound, how does the EC50 [3] read?
A: 3.6 µM

Q: And the “percentage of inhibition of hepatocyte invasion” value [4]?
A: 100%

Q: And the EC50 ([5]; Plasmodium cynomolgi, Hepatocyte, P. cynomolgi in simian primary hepatocytes (SH), mean ± SEM of triplicate experiments, read-out: EC50 against liver-stage parasites)?
A: 2720 ± 340 nM

Q: And the “SI (selectivity index)” value ([5]; hepatocyte CC50/EC50, P. cynomolgi (SH))?
A: 12

Q: And the “Size reduction at 10 μM (%)” value ([5]; parasite (schizont) size, 10 μM, P. cynomolgi (SH))?
A: 70%

Q: What about the “blood-stage parasitemia after sporozoite infection” value [6] of the same compound?
A: remained clear of parasitemia

Q: And the EC50 ([7]; Plasmodium falciparum, Hepatocyte, P. falciparum in human primary hepatocytes (HH), mean ± SEM of triplicate experiments, read-out: EC50 against liver-stage parasites)?
A: 600 ± 60 nM

Q: And the “SI (selectivity index)” value ([7]; hepatocyte CC50/EC50, P. falciparum (HH))?
A: 66

Q: And the “Size reduction at 10 μM (%)” value ([7]; parasite (schizont) size, 10 μM, P. falciparum (HH))?
A: 100%

Q: What about the EC50 ([8]; Plasmodium yoelii, Hepatocyte, read-out: EC50 against liver-stage parasites) of the same compound?
A: 640 ± 100 nM

Q: And the “SI (selectivity index)” value ([8]; hepatocyte CC50/EC50, P. yoelii (MH))?
A: 110

Q: For COc1cccc2c1C(=O)c1c(O)c3c(c(O)c1C2=O)C[C@@](O)(C(=O)CO)C[C@@H]3O[C@H]1C[C@H](N)[C@H](O)[C@H](C)O1 [Doxorubicin, reference compound], which CC50 at 72 h [2] is on record?
A: 0.2 µM

Q: With C[C@H]1c2cccc(O)c2C(=O)C2=C(O)[C@]3(O)C(=O)C(C(N)=O)=C(O)[C@@H](N(C)C)[C@@H]3[C@@H](O)[C@@H]21 [Doxycycline, reference compound] as the compound, how does the EC50 [1] read?
A: 6 µM

Q: And the CC50 at 72 h [2]?
A: 20 µM

Q: Which EC50 [3] does the source give for CC(C)(C)Nc1nc2cc(-c3ccc(C(=O)O)cc3)sc2c(=O)[nH]1 [Metabolite 10, 4-(2-(tert-Butylamino)-4-oxo-3,4-dihydrothieno[3,2-d]pyrimidin-6-yl)benzoic acid] here?
A: > 10 µM

Q: What about the EC50 [1] of the same compound?
A: > 10 µM

Q: What about the CC50 at 72 h [2] of the same compound?
A: > 10 µM

Q: For CC(C)(C)Nc1nc2cc(-c3ccc(CO)cc3)sc2c(=O)[nH]1 [Metabolite 7, 2-(tert-Butylamino)-6-(4-(hydroxymethyl)phenyl)thieno[3,2-d]pyrimidin-4(3H)-one], which EC50 [3] is on record?
A: 1 µM

Q: What about the melting point of the same compound?
A: 264 °C

Q: And the EC50 [1]?
A: 0.4 µM

Q: And the CC50 at 72 h [2]?
A: 25 µM

From PMC8557901 (Microbiology Spectrum, 2021)
